What was measured:
[1] = system: Haloperidol-induced catalepsy; experiment: Haloperidol-induced catalepsy test (descent test), model for parkinsonism; format: in vivo, Sprague-Dawley rats; details: for descent latency: rats after haloperidol 0.5 mg/kg, compound 5 mg/kg, FIG. 1, vehicle control about 130 seconds
Method: (§1) Next, rats (Sprague-Dawley rats; Charles-River, Sulzfeld, Germany) were established as the animal model. The rats were kept in constant, reproducible conditions. Sprague-Dawley rats weighing about 220 to 300 g were used in the experiment. The rats were kept in groups. A light cycle of 12:12 hours was maintained (light switched on from 07:00 to 19:00 hours). For two weeks before the experiments, all the rats were kept in the same room. Water was made available ad libitum, standard animal feed was supplied once daily in an amount of 12 g per animal. All experiments were carried out between 09:00 and 17:00 hours and complied with international ethical standards and the German animal protection law. It was approved by the Animal Protection Commission, Tübingen Administrative Board, ZP 5/01.
Haloperidol-induced catalepsy is used here as a model for parkinsonism. Haloperidol is a dopamine receptor-blocking drug. The catalepsy induced in this way comprises akinesia and rigor. The haloperidol model can be treated with all known clinically effective antiparkinsonism drugs, as described above.
Dopamine hypofunction and the consequent parkinsonian symptoms were generated as follows.
Control Group: • Haloperidol (Haldol, Janssen®, Germany) was diluted with phosphate buffered saline (PBS; Sigma, Deisenhofen, Germany) to a concentration of 0.5 mg per ml. Twelve rats were each given an intraperitoneal (i.p.) injection of this solution with an absolute amount of haloperidol of 0.5 mg per kilogram of body weight and an injection with PBS.
Test Group: • Another twelve rats were treated identically, but instead of the PBS injection were given a fluorine-substituted amphetamine derivative 1-(3,4-difluorophenyl)-2-(N-ethylamino)propane (Formula III) dissolved in PBS.
The results of the descent tests are illustrated in FIG. 1. […] The descent latency of rats treated with MDMA (5 mg/kg) was much less, at about 30 seconds, but for the rats treated with 1-(3,4-difluorophenyl)-2-(N-ethylamino)propane (fMDE, Formula (III), 5 mg/kg) it was even lower.

[2] = system: L-DOPA-induced dyskinesias; experiment: L-DOPA-induced dyskinesia (AIM) in 6-hydroxydopamine hemiparkinsonian rats; format: in vivo
Method: as §1
24 rats were put in deep narcosis. One hemisphere of the rats was treated in each case with the neurotoxin 6-hydroxydopamine, which destroyed dopaminergic neurons in this hemisphere. […] Then the animals were treated intraperitoneally with an antiparkinsonian drug twice daily for 25 days. This comprised L-DOPA-methyl ester in an amount of 10 mg per kg of body weight with benserazide in an amount of 7.5 mg per kg of body weight (Sigma, Deisenhofen, Germany). Under this treatment the rats developed dyskinesias of the contralateral forepaws.
Control Group: • Continuing this treatment, 12 of the 24 rats were treated additionally with PBS.
Test Group: • The other twelve rats were treated additionally with a fluorinated amphetamine derivative 1-(3,4-difluorophenyl)-2-(N-ethylamino)propane (Formula III).
The results for the treatment are illustrated in FIG. 2. The dyskinesia was quantified (AIM=abnormal involuntary movements) in the control group on five successive days. […] For comparison, the dyskinesia quantification of the test group, i.e., the animals additionally treated with 1-(3,4-difluorophenyl)-2-(N-ethylamino)propane (Formula (III), fMDE, 5 mg/kg), was observed. The measurements were in each case recorded 60 minutes after the animals were treated. […]

Compound	akinesia and rigor in the catalepsy test, test group versus control group ([1]; haloperidol 0.5 mg/kg i.p., compound dissolved in PBS, versus haloperidol + PBS)	descent latency [1]	onset of the antidyskinetic effect ([2]; 5 mg/kg, administration on successive days)	number of AIMs (abnormal involuntary movements) per 4 min versus vehicle control ([2]; 5 mg/kg, recorded 60 minutes after treatment, five successive days, FIG. 2)	expression of the dyskinesias, test group versus control group ([2]; in addition to L-DOPA-methyl ester 10 mg/kg + benserazide 7.5 mg/kg)
CCNC(C)Cc1ccc(F)c(F)c1 (stereo not drawn) [Formula III, 1-(3,4-difluorophenyl)-2-(N-ethylamino)propane]	significantly less pronounced	even lower	already seen on the first day	almost halved	significantly reduced
CNC(C)Cc1ccc2c(c1)OCO2 (stereo not drawn) [MDMA, 3,4-methylene dioxymethamphetamine, reference compound]	–	about 30 seconds	–	–	–

Source: patent US20100179221A1, “FLUORINE-SUBSTITUTED AMPHETAMINES AND AMPHETAMINE DERIVATIVES AND USE THEREOF” (Universitat Tubingen, priority 2007, published 2010)
